The experiment deals with KDR (Homo sapiens, UniProt P35968). Description: KDR autophosphorylation ELISA in HUVEC cells. The experiment is classed as cell-based. More on the design: endogenous in cells; host or cells: HUVEC (Lonza #C2519A). To be noted: cellular activity, VEGF165-stimulated, phospho-KDR ELISA. As to the method:
Human umbilical vein endothelial cells or HUVEC (Lonza #C2519A) were seeded at 2×10^4 cells/well onto 96-well plates (Corning #3904), in EGM-2 growth medium (Lonza #CC-3162) containing 1% Penicillin Streptomycin (Thermo Fisher #15140-122). HUVEC cells were incubated at 37° C., 5% CO2 for 24 h and then starved for 24 h in serum-free EBM-2 basal medium (Lonza #CC-3156) containing 1% Penicillin Streptomycin. Test compounds were serially diluted to produce an 8-point dose curve in fresh serum-free medium to a final concentration of 0.3% DMSO (vehicle) and added to the cells and incubated for 1 h. Cells were then stimulated with 100 ng/mL recombinant human VEGF165 (R&D Systems #293-VE-500) for 5 min, washed with cold PBS, and immediately lysed with 130 μL of cold 1× lysis buffer [20 mM Tris, 137 mM sodium chloride, 2 mM EDTA, 10% glycerol, 1% NP-40 alternative, 1 mM activated sodium orthovanadate, 1 mM PefaBloc SC (Sigma-Aldrich #11429868001), protease/phosphatase inhibitor tablet (Thermo Fisher #A32959)]. Lysates were collected and 100 μL/well added into the human phospho-KDR DuoSet IC ELISA (R&D Systems #DYC1766-2). Assay was performed according to manufacturer's instructions and sample phospho-KDR concentrations were extrapolated using human phospho-KDR control (R&D Systems #841421) as a standard. Positive control wells (100% activity) contained VEGF165-stimulated, DMSO-treated cell lysates. Negative control wells (0% activity) contained non-stimulated cell lysates. IC50 values were calculated by nonlinear regression analysis using a 4-parameter logistic curve fit in ActivityBase XE (IDBS).
KDR, sequence (P35968 20-1356): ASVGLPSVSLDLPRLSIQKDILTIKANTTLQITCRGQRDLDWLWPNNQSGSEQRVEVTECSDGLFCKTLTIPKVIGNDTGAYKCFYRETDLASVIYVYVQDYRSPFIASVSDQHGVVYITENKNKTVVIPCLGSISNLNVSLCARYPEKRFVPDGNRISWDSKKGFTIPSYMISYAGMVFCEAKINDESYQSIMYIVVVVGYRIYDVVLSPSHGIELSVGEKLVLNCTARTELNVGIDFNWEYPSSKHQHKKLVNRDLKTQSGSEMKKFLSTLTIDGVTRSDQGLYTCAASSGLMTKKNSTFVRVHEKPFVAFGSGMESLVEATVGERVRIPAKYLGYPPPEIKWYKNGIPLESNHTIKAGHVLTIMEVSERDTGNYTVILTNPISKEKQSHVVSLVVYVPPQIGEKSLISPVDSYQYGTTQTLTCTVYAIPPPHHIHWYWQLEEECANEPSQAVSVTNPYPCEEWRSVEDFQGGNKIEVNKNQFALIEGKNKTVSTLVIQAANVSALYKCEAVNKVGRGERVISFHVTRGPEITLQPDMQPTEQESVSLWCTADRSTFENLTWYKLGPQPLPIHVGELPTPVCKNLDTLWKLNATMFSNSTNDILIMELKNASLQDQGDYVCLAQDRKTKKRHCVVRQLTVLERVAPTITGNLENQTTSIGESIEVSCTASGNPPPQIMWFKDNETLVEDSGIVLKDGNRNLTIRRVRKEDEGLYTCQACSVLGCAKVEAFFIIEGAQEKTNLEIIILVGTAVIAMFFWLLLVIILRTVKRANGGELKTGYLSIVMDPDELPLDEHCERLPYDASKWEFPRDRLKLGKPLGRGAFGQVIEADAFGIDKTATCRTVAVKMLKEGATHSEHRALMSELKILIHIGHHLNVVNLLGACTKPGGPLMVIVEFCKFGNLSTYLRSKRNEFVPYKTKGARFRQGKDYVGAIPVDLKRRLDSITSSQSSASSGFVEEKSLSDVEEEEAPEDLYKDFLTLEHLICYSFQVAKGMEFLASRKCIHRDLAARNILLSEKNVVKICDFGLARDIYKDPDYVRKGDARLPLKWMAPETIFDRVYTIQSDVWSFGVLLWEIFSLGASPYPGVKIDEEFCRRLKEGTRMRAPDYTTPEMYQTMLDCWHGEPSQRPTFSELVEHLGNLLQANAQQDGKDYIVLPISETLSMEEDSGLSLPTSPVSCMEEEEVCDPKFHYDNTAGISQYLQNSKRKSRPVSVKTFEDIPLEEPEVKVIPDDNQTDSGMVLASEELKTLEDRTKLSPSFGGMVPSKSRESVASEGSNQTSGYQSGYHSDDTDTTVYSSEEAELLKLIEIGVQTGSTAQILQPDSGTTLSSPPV
Regarding `Cn1ccc(-c2ccc3c(Oc4ccc(NC(=O)C5(C(=O)Nc6ccc(F)cc6)CC5)cc4)ccnc3c2)cc1=O` [Compound 117, 1-N′-(4-Fluorophenyl)-1-N-[4-[7-(1-methyl-2-oxopyridin-4-yl)quinolin-4-yl]oxyphenyl]cyclopropane-1,1-dicarboxamide], the IC50 was at most 10 nM.

Take `C#Cc1ccc2c(Oc3ccc(NC(=O)C4(C(=O)Nc5ccc(F)cc5)CC4)cc3)ccnc2c1` [Compound 64, 1-N-[4-(7-Ethynylquinolin-4-yl)oxyphenyl]-1-N′-(4-fluorophenyl)cyclopropane-1,1-dicarboxamide]: the IC50 lay within 100 to 300 nM. Consider `O=C(Nc1ccc(F)cc1)C1(C(=O)Nc2ccc(Oc3ccnc4cc(-c5cncs5)ccc34)cc2)CC1` [Compound 116, 1-N′-(4-Fluorophenyl)-1-N-[4-[7-(1,3-thiazol-5-yl)quinolin-4-yl]oxyphenyl]cyclopropane-1,1-dicarboxamide], for which the concentration for half-maximal inhibition (IC50) was at most 10 nM. The same measure for `CC1Cc2cc(F)ccc2N1C(=O)C1(C(=O)Nc2ccc(Oc3ccnc4cc(-c5cnn(C)c5)ccc34)cc2)CC1` (stereo not drawn) [Compound 80, 1-(5-Fluoro-2-methyl-2,3-dihydroindole-1-carbonyl)-N-[4-[7-(1-methylpyrazol-4-yl)quinolin-4-yl]oxyphenyl]cyclopropane-1-carboxamide]: over 300 nM; for `Cn1cnc(-c2ccc3c(Oc4ccc(NC(=O)C5(C(=O)Nc6ccc(F)cc6)CC5)cc4)ccnc3c2)c1` [Compound 69, 1-N′-(4-Fluorophenyl)-1-N-[4-[7-(1-methylimidazol-4-yl)quinolin-4-yl]oxyphenyl]cyclopropane-1,1-dicarboxamide]: at most 10 nM; for `O=C(Nc1ccc(F)cc1)C1(C(=O)Nc2ccc(Oc3ccnc4cc(-c5ccnnc5)ccc34)cc2)CC1` [Compound 28, 1-N′-(4-Fluorophenyl)-1-N-[4-(7-pyridazin-4-ylquinolin-4-yl)oxyphenyl]cyclopropane-1,1-dicarboxamide]: 10 to 100 nM. To `O=C(Nc1ccc(F)cc1)C1(C(=O)Nc2ccc(Oc3ccnc4cc(-c5cnn(C(F)F)c5)ccc34)c(F)c2)CC1` [Compound 123, 1-N′-[4-[7-[1-(Difluoromethyl)pyrazol-4-yl]quinolin-4-yl]oxy-3-fluorophenyl]-1-N-(4-fluorophenyl)cyclopropane-1,1-dicarboxamide] belongs at most 10 nM; to `O=C(Nc1ccc(F)cc1)C1(C(=O)Nc2ccc(Oc3ccnc4cc(-c5ncco5)ccc34)cc2)CC1` [Compound 66, 1-N′-(4-Fluorophenyl)-1-N-[4-[7-(1,3-oxazol-2-yl)quinolin-4-yl]oxyphenyl]cyclopropane-1,1-dicarboxamide], 10 to 100 nM. Compound `Cn1ccnc1-c1ccc2c(Oc3ccc(NC(=O)C4(C(=O)Nc5ccc(F)cc5)CC4)cc3)ccnc2c1` [Compound 75, 1-N′-(4-Fluorophenyl)-1-N-[4-[7-(1-methylimidazol-2-yl)quinolin-4-yl]oxyphenyl]cyclopropane-1,1-dicarboxamide] had an IC50 of 10 to 100 nM. Regarding `Cc1cc2c(Oc3cc(Cl)c(NC(=O)C4(C(=O)Nc5ccc(F)cc5)CC4)cc3F)ccnc2cc1-c1cnn(C)c1` [Compound 112, 1-N′-[2-Chloro-5-fluoro-4-[6-methyl-7-(1-methylpyrazol-4-yl)quinolin-4-yl]oxyphenyl]-1-N-(4-fluorophenyl)cyclopropane-1,1-dicarboxamide], the half-maximal inhibitory concentration (IC50) is over 300 nM. Regarding `O=C(Nc1ccc(F)cc1)C1(C(=O)Nc2ccc(Oc3ccnc4cc(-c5cnn(C6COC6)c5)ccc34)cc2)CC1` [Compound 24, 1-N′-(4-Fluorophenyl)-1-N-[4-[7-[1-(oxetan-3-yl)pyrazol-4-yl]quinolin-4-yl]oxyphenyl]cyclopropane-1,1-dicarboxamide], the 50% inhibitory concentration (IC50) is at most 10 nM. To `O=C(Nc1ccc(F)cc1)C1(C(=O)Nc2ccc(Oc3ccnc4cc(-c5ccn(C(F)F)n5)ccc34)cc2)CC1` [Compound 84, 1-N-[4-[7-[1-(Difluoromethyl)pyrazol-3-yl]quinolin-4-yl]oxyphenyl]-1-N′-(4-fluorophenyl)cyclopropane-1,1-dicarboxamide] belongs 10 to 100 nM; to `COc1cc(-c2ccc3c(Oc4ccc(NC(=O)C5(C(=O)Nc6ccc(F)cc6)CC5)cc4)ccnc3c2)ccn1` [Compound 31, 1-N′-(4-Fluorophenyl)-1-N-[4-[7-(2-methoxypyridin-4-yl)quinolin-4-yl]oxyphenyl]cyclopropane-1,1-dicarboxamide], 10 to 100 nM; to `O=C(Nc1ccc(F)cc1)C1(C(=O)Nc2ccc(Oc3ccnc4cc(-c5cnn(CCN6CCOCC6)c5)ccc34)cc2)CC1` [Compound 19, 1-N′-(4-Fluorophenyl)-1-N-[4-[7-[1-(2-morpholin-4-ylethyl)pyrazol-4-yl]quinolin-4-yl]oxyphenyl]cyclopropane-1,1-dicarboxamide], 10 to 100 nM. `O=C(Nc1ccc(F)cc1)C1(C(=O)Nc2ccc(Oc3ccnc4cc(-c5cncnc5)ccc34)cc2)CC1` [Compound 27, 1-N′-(4-Fluorophenyl)-1-N-[4-(7-pyrimidin-5-ylquinolin-4-yl)oxyphenyl]cyclopropane-1,1-dicarboxamide] showed an IC50 of 10 to 100 nM. To `O=C(Nc1ccc(F)cc1)C1(C(=O)Nc2ccc(Oc3ccnc4cc(-c5cccnc5)ccc34)cc2)CC1` [Compound 25, 1-N′-(4-Fluorophenyl)-1-N-[4-(7-pyridin-3-ylquinolin-4-yl)oxyphenyl]cyclopropane-1,1-dicarboxamide] belongs at most 10 nM; to `O=C(Nc1ccc(F)cc1)C1(C(=O)Nc2ccc(Oc3ccnc4cc(-c5cnn(CCF)c5)ccc34)cc2)CC1` [Compound 14, 1-N-[4-[7-[1-(2-Fluoroethyl)pyrazol-4-yl]quinolin-4-yl]oxyphenyl]-1-N′-(4-fluorophenyl)cyclopropane-1,1-dicarboxamide], 10 to 100 nM. To `O=C(Nc1ccc(F)cc1)C1(C(=O)Nc2ccc(Oc3ccnc4cc(-c5cccnc5)ccc34)c(F)c2)CC1` [Compound 113, 1-N-(4-Fluorophenyl)-1-N′-[3-fluoro-4-(7-pyridin-3-ylquinolin-4-yl)oxyphenyl]cyclopropane-1,1-dicarboxamide] belongs at most 10 nM; to `O=C(Nc1ccc(F)cc1)C1(C(=O)Nc2ccc(Oc3ccnc4cc(-c5ccn[nH]5)ccc34)cc2)CC1` [Compound 68, 1-N′-(4-Fluorophenyl)-1-N-[4-[7-(1H-pyrazol-5-yl)quinolin-4-yl]oxyphenyl]cyclopropane-1,1-dicarboxamide], at most 10 nM.

Take `COc1cc2c(Oc3ccc(NC(=O)C4(C(=O)Nc5ccc(F)cc5)CC4)cc3)ccnc2cc1-c1cnn(C)c1` [Compound 76, 1-N′-(4-Fluorophenyl)-1-N-[4-[6-methoxy-7-(1-methylpyrazol-4-yl)quinolin-4-yl]oxyphenyl]cyclopropane-1,1-dicarboxamide]: the IC50 was in the range of 10 to 100 nM. The compound `O=C(Nc1ccc(F)cc1)C1(C(=O)Nc2ccc(Oc3ccnc4cc(-c5ccncc5)ccc34)cc2)CC1` [Compound 26, 1-N′-(4-Fluorophenyl)-1-N-[4-(7-pyridin-4-ylquinolin-4-yl)oxyphenyl]cyclopropane-1,1-dicarboxamide] gave a half-inhibitory concentration (IC50) of at most 10 nM. Compound `O=C(Nc1ccc(F)cc1)C1(C(=O)Nc2ccc(Oc3ccnc4cc(-c5cnoc5)ccc34)cc2)CC1` [Compound 57, 1-N′-(4-Fluorophenyl)-1-N-[4-[7-(1,2-oxazol-4-yl)quinolin-4-yl]oxyphenyl]cyclopropane-1,1-dicarboxamide] gave an IC50 of 10 to 100 nM. In turn, `O=C(Nc1ccc(F)cc1)C1(C(=O)Nc2ccc(Oc3ccnc4cc(-c5cn[nH]c5)ccc34)cc2)CC1` [Compound 67, 1-N′-(4-Fluorophenyl)-1-N-[4-[7-(1H-pyrazol-4-yl)quinolin-4-yl]oxyphenyl]cyclopropane-1,1-dicarboxamide] registered a half-inhibitory concentration (IC50) of at most 10 nM. Take `Nc1ccc(-c2ccc3c(Oc4ccc(NC(=O)C5(C(=O)Nc6ccc(F)cc6)CC5)cc4)ccnc3c2)cn1` [Compound 38, 1-N-[4-[7-(6-Aminopyridin-3-yl)quinolin-4-yl]oxyphenyl]-1-N′-(4-fluorophenyl)cyclopropane-1,1-dicarboxamide]: the half-inhibitory concentration (IC50) lay within 10 to 100 nM.

`O=C(Nc1ccc(F)cc1)C1(C(=O)Nc2ccc(Oc3ccnc4cc(-c5cnn(C(F)(F)F)c5)ccc34)cc2)CC1` [Compound 12, 1-N′-(4-Fluorophenyl)-1-N-[4-[7-[1-(trifluoromethyl)pyrazol-4-yl]quinolin-4-yl]oxyphenyl]cyclopropane-1,1-dicarboxamide] returned an IC50 of 10 to 100 nM. The compound `COc1cncc(-c2ccc3c(Oc4ccc(NC(=O)C5(C(=O)Nc6ccc(F)cc6)CC5)cc4)ccnc3c2)c1` [Compound 47, 1-N′-(4-Fluorophenyl)-1-N-[4-[7-(5-methoxypyridin-3-yl)quinolin-4-yl]oxyphenyl]cyclopropane-1,1-dicarboxamide] returned a concentration for half-maximal inhibition (IC50) of 100 to 300 nM. The same measure for `CS(=O)(=O)n1cc(-c2ccc3c(Oc4ccc(NC(=O)C5(C(=O)Nc6ccc(F)cc6)CC5)cc4)ccnc3c2)cn1` [Compound 79, 1-N′-(4-Fluorophenyl)-1-N-[4-[7-(1-methylsulfonylpyrazol-4-yl)quinolin-4-yl]oxyphenyl]cyclopropane-1,1-dicarboxamide]: at most 10 nM.

As usually defined, the IC50 is the concentration at which inhibition is half-maximal.
